From patent EP4678634A1, “ANDROGEN RECEPTOR MODULATORS AND USES THEREOF” (Haihe Biopharma Co., Ltd., priority 2023, dated 2024)

Target: T1, Androgen receptor (AR) (Homo sapiens, UniProt P10275)
T1 construct: expressed in transfected cells; host or cells: HEK293T (AR+ARE/Luc)
T1 sequence (P10275 1-920): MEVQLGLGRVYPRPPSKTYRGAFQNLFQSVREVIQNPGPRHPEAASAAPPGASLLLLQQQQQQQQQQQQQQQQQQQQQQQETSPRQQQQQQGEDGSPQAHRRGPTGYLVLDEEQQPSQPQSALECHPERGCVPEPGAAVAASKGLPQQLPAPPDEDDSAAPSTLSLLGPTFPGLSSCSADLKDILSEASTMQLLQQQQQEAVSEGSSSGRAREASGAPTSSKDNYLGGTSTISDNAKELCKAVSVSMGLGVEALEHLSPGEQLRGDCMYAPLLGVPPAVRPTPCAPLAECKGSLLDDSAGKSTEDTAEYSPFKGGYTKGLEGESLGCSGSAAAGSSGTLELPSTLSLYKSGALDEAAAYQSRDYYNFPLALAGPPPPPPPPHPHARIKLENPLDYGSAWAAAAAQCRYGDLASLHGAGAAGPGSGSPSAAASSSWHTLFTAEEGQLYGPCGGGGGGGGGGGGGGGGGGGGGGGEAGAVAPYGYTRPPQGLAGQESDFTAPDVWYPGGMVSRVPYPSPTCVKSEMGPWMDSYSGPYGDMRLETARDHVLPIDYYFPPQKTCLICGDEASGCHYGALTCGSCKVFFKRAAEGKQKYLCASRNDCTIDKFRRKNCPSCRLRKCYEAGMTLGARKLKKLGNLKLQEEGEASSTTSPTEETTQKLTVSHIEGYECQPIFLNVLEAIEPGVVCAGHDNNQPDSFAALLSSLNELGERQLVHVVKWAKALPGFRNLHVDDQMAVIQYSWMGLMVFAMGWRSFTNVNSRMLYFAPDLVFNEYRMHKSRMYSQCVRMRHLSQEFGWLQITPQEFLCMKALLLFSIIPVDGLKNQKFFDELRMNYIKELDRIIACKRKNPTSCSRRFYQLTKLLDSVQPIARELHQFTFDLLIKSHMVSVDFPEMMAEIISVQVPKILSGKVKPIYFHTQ
Assay: Androgen receptor (AR) reporter gene assay (luciferase)
Assay type: cell-based
Settings: AR+ARE/Luc HEK293T cells, stimulated with 11-KDHT, 24h incubation, Bright-Lite luminescence; read-out: HEK293 Luc IC50
Procedure: Androgen receptor (AR) reporter gene assay
Experimental reagents: 11-Ketodihydrotestosterone (11-KDHT) was purchased from MCE (cat.HY-135794); Enzalutamide (MDV3100) was purchased from Selleck (cat.S1250); Bright-Lite Luciferase Assay kit was purchased from Vazyme (cat.DD1204-01);
• 1. dissolve the described compounds in 100% DMSO at a final concentration of 10 mM. 100 nL each of 400X compound to be tested and 400X 11-KDHT (40 nM) were added to a 384-well assay plate with Echo, followed by 20 µL of complete medium, and centrifuged at 1000 rpm for 1 min, and oscillated for 20-30 min at room temperature. • 2. 20 µL of AR+ARE/Luc HEK293T cells (10,000 cells/well) were inoculated into the assay plate containing the compounds and 11-KDHT, and centrifuged at 1000 rpm for 1 min. The assay plate was incubated in a 37 °C CO2 incubator for 24h. • 3. 40 µL of Bright-Lite assay reagent was transferred to each well of the assay plate, centrifuged at 1000 rpm for 1 min, and shaken for 2 min at room temperature protected from light. Luminescence values (RLU) were measured using Envision. Based on the results, the IC50 values of the compounds described were calculated. Table 1 HEK293-Luc% inhibition IC50 of representative compounds

`ClCCOc1c(Cl)cc2c(c1Cl)CCCN2c1ccc2[nH]ncc2n1` [HANT-165, 5,7-dichloro-6-(2-chloroethoxy)-1-(1H-pyrazolo[4,3-b]pyridin-5-yl)-1,2,3,4-tetrahydroquinoline] and `ClCCOc1c(Cl)cc2c(c1Cl)CCCN2c1cc2cn[nH]c2cn1` [HANT-164, 5,7-dichloro-6-(2-chloroethoxy)-1-(1H-pyrazolo[3,4-c]pyridin-5-yl)-1,2,3,4-tetrahydroquinoline] cannot be ordered by IC50: > 2000 nM for the first, > 2000 nM for the second.

First: N#Cc1ccc(C(=O)NC2CCCc3c2cc(C#N)c(OCCCl)c3Cl)cc1 (stereo not drawn) [HANT-234]
Second: COc1ccc(C(=O)NC2CCCc3c2cc(C#N)c(OCCCl)c3Cl)cc1 (stereo not drawn) [HANT-235]
The IC50 of the first is lower: 1 to 500 nM for the first, 500 to 1000 nM for the second. The first is the more potent here.

First: N#Cc1cc2c(c(Cl)c1OCCCl)CCCC2NC(=O)c1ccncc1 (stereo not drawn) [HANT-214]
Second: N#Cc1cc2c(c(Cl)c1OCCCl)CCCC2NC(=O)c1ccccn1 (stereo not drawn) [HANT-215]
The IC50 of the first is higher: 500 to 1000 nM for the first, 1 to 500 nM for the second. The second is the more potent here.

`CN1Cc2ccc(C3CCCc4c3cc(C#N)c(OCCCl)c4Cl)cc2C1=O` (stereo not drawn) [HANT-983] and `N#Cc1cc2c(c(Cl)c1OCCCl)CCCC2c1ccc2[nH]ncc2c1` (stereo not drawn) [HANT-144A, 4-chloro-3-(2-chloroethoxy)-8-(1H-indazol-5-yl)-5,6,7,8-tetrahydronaphthalene-2-carbonitrile] cannot be ordered by IC50: > 2000 nM for the first, > 2000 nM for the second.

Compared with `N#Cc1cc2c(c(Cl)c1OCCCl)CCCC2Nc1cn[nH]c1` (stereo not drawn) [HANT-239, 8-((1H-pyrazol-4-yl)amino)-4-chloro-3-(2-chloroethoxy)-5,6,7,8-tetrahydronaphthalene-2-carb onitrile], `N#Cc1cc2c(c(Cl)c1OCCCl)CCCC2Nc1cc[nH]n1` (stereo not drawn) [HANT-175] is higher in IC50: 500 to 1000 nM for the first, 1000 to 2000 nM for the second. The first is the more potent here.

`N#Cc1cc2c(c(Cl)c1OCCCl)CCCC2c1cnc2[nH]nc(-c3ccncc3)c2c1` (stereo not drawn) [HANT-218, 4-chloro-3-(2-chloroethoxy)-8-(3-(pyridin-4-yl)-1H-pyrazolo[3,4-b]pyridin-5-yl)-5,6,7,8-tetrah ydronaphthalene-2-carbonitrile] and `N#Cc1cc2c(c(Cl)c1OCCCl)CCCC2c1cnc2[nH]ncc2c1` (stereo not drawn) [HANT-150A, 4-chloro-3-(2-chloroethoxy)-8-(1H-pyrazolo[3,4-b]pyridin-5-yl)-5,6,7,8-tetrahydronaphthalene-2-carbonitrile] fall in the same range of IC50: 1 to 500 nM for the first, 1 to 500 nM for the second.

First: N#Cc1c2c(cc(Cl)c1OCCCl)C(c1ccc(O)cc1)CCC2 (stereo not drawn) [HANT-106, 3-chloro-2-(2-chloroethoxy)-5-(4-hydroxyphenyl)-5,6,7,8-tetrahydronaphthalene-1-carbonitrile]
Second: Oc1ccc(C2CCCc3c2cc(Cl)c(OCCCl)c3Cl)cc1 (stereo not drawn) [HANT-336A, 4-(5,7-dichloro-6-(2-chloroethoxy)-1,2,3,4-tetrahydronaphthalen-1-yl)phenol]
The IC50 of the first is lower: 1 to 500 nM for the first, 500 to 1000 nM for the second.

Compared with `N#Cc1cc2c(c(Cl)c1OCCCl)CCCC2c1cnc2[nH]nc(C3CCOCC3)c2c1` (stereo not drawn) [HANT-220, 4-chloro-3-(2-chloroethoxy)-8-(3-(tetrahydro-2H-pyran-4-yl)-1H-pyrazolo[3,4-b]pyridin-5-yl)-5,6,7,8-tetrahydronaphthalene-2-cyanide], `CNc1ncc(C2CCCc3c2cc(C#N)c(OCCCl)c3Cl)cn1` (stereo not drawn) [HANT-247, 4-chloro-3-(2-chloroethoxy)-8-(2-(methylamino)pyrimidin-5-yl)-5,6,7,8-tetrahydronaphthalene-2-carbonitrile] is lower in IC50: > 2000 nM for the first, 1 to 500 nM for the second.

`N#Cc1cc2c(c(Cl)c1OCCCl)CCCC2Nc1ccccc1` (stereo not drawn) [HANT-226] and `N#Cc1cc2c(c(Cl)c1OCCCl)CCCC2Nc1cccnc1` (stereo not drawn) [HANT-227] fall in the same range of IC50: 1 to 500 nM for the first, 1 to 500 nM for the second.

`N#Cc1cc2c(c(Cl)c1OCCCl)CCCC2Nc1cncc(F)c1` (stereo not drawn) [HANT-254] and `N#Cc1cc2c(c(Cl)c1OCCCl)CCCC2Nc1cnc(N)nc1` (stereo not drawn) [HANT-251] fall in the same range of IC50: 1 to 500 nM for the first, 1 to 500 nM for the second.

`Fc1cc2c(c(F)c1OCCCl)CCCC2c1ccc2[nH]ncc2c1` (stereo not drawn) [HANT-103, 5-(6-(2-chloroethoxy)-5,7-difluoro-1,2,3,4-tetrahydronaphthalen-1-yl)-1H indazole] and `ClCCOc1c(Cl)cc2c(c1Cl)CCCC2c1ccc2[nH]cnc2c1` (stereo not drawn) [HANT-112] fall in the same range of IC50: 500 to 1000 nM for the first, 500 to 1000 nM for the second.

Compared with `COc1cc(O)ccc1C1CCCc2c1cc(Cl)c(OCCCl)c2Cl` (stereo not drawn) [HANT-137], `Oc1ccc(C2CCCc3c2cc(Cl)c(OCCCl)c3Cl)cc1` (stereo not drawn) [HANT-336B, 4-(5,7-dichloro-6-(2-chloroethoxy)-1,2,3,4-tetrahydronaphthalen-1-yl)phenol] is lower in IC50: 1000 to 2000 nM for the first, 1 to 500 nM for the second.

First: Oc1ccc(C2CCc3c2ccc(OCCCl)c3Cl)cc1 (stereo not drawn) [HANT-108, 4-(4-chloro-5-(2-chloroethoxy)-2,3-dihydro-1H-inden-1-yl)phenol]
Second: Oc1ccc(C2CCc3cc(OCCCl)c(Cl)cc32)cc1 (stereo not drawn) [HANT-107, 4-(6-chloro-5-(2-chloroethoxy)-2,3-dihydro-1H-inden-1-yl)phenol]
The IC50 of the first is lower: 1 to 500 nM for the first, 1000 to 2000 nM for the second. The first is the more potent here.

`CNC(=O)c1cc2c(c(Cl)c1OCCCl)CCCC2c1cnc2[nH]ncc2c1` (stereo not drawn) [HANT-183, 4-chloro-3-(2-chloroethoxy)-N-methyl-8-(1H-pyrazolo[3,4-b]pyridin-5-yl)-5,6,7,8-tetrahydrona phthalene-2-carboxamide] and `N#Cc1cc2c(c(Cl)c1OCCC(F)(F)F)CCCC2c1cnc2[nH]ncc2c1` (stereo not drawn) [HANT-171] fall in the same range of IC50: 1000 to 2000 nM for the first, 1000 to 2000 nM for the second.

Compared with `O=C1Cc2cc(C3CCCc4c3cc(Cl)c(OCCCl)c4Cl)ccc2N1` (stereo not drawn) [HANT-135], `Oc1ccc(C2CCCc3c2cc(Cl)c(OCCCl)c3Cl)cc1F` (stereo not drawn) [HANT-109] is higher in IC50: 1 to 500 nM for the first, 1000 to 2000 nM for the second.

`N#Cc1cc2c(c(Cl)c1OCCCl)CCCC2Nc1ccccn1` (stereo not drawn) [HANT-252] and `N#Cc1cc2c(c(Cl)c1OCCCl)CCCC2Nc1ccc2[nH]ncc2n1` (stereo not drawn) [HANT-191, 8-((1H-pyrazolo[4,3-b]pyridin-5-yl)amino)-4-chloro-3-(2-chloroethoxy)-5,6,7,8-tetrahydronaph thalene-2-carbonitrile] fall in the same range of IC50: 1 to 500 nM for the first, 1 to 500 nM for the second.

Compared with `N#Cc1cc2c(c(Cl)c1OCCCl)CCCC2c1cc2cn[nH]c2cn1` (stereo not drawn) [HANT-149], `N#Cc1cc2c(c(Cl)c1OCCCl)CCCC2c1cnc(N)cn1` (stereo not drawn) [HANT-249] is higher in IC50: 1 to 500 nM for the first, 500 to 1000 nM for the second.

First: ClCCOc1c(Cl)cc2c(c1Cl)CCCC2N1CCc2cn[nH]c2C1 (stereo not drawn) [HANT-126]
Second: Oc1ccc2c(c1)CCN(C1CCCc3c1cc(Cl)c(OCCCl)c3Cl)C2 (stereo not drawn) [HANT-124, 2-(5,7-dichloro-6-(2-chloroethoxy)-1,2,3,4-tetrahydronaphthalen-1-yl)-1,2,3,4-tetrahydroisoqui nolin-6-ol]
The IC50 of the first is lower: 500 to 1000 nM for the first, > 2000 nM for the second. The first is the more potent here.

First: N#Cc1cc2c(c(Cl)c1OCCCl)CCCC2c1cc2c3c(cccc3c1)NC2=O (stereo not drawn) [HANT-979, 4-Chloro-3-(2-chloroethoxy)-8-(2-oxo-1,2-dihydrobenzo[cd]indol-4-yl)-5,6,7,8-tetrahydronapht halene-2-carbonitrile]
Second: N#Cc1cc2c(c(Cl)c1OCCCl)CCCC2c1ccc(O)cc1 (stereo not drawn) [HANT-105, 4-chloro-3-(2-chloroethoxy)-8-(4-hydroxyphenyl)-5,6,7,8-tetrahydronaphthalene-2-carbonitrile]
The IC50 of the first is higher: 500 to 1000 nM for the first, 1 to 500 nM for the second. The second is the more potent here.

`N#Cc1cc2c(c(Cl)c1OCCCl)CCCC2c1cccnc1` (stereo not drawn) [HANT-255] and `N#Cc1cc2c(c(Cl)c1OCCCl)CCCC2c1cccc2[nH]ncc12` (stereo not drawn) [HANT-193, 4-chloro-3-(2-chloroethoxy)-8-(1H-indazol-7-yl)-5,6,7,8-tetrahydronaphthalene-2-cyanide] fall in the same range of IC50: 1 to 500 nM for the first, 1 to 500 nM for the second.

Compared with `N#Cc1cc2c(c(Cl)c1OCCCl)CCCC2NC(=O)c1cc[nH]n1` (stereo not drawn) [HANT-188], `CCCOc1c(C#N)cc2c(c1Cl)CCCC2Nc1ccc(OC)nc1` (stereo not drawn) [HANT-121] is lower in IC50: 500 to 1000 nM for the first, 1 to 500 nM for the second.

First: ClCCOc1c(Cl)cc2c(c1Cl)CCCN2c1ccc2[nH]ncc2c1 [HANT-127, 5,7-dichloro-6-(2-chloroethoxy)-1-(1H-indazol-5-yl)-1,2,3,4-tetrahydroquinoline]
Second: Cn1nc(C2CCCc3c2cc(C#N)c(OCCCl)c3Cl)c2ccccc21 (stereo not drawn) [HANT-949]
The IC50 of the first is lower: 500 to 1000 nM for the first, 1000 to 2000 nM for the second.

`N#Cc1cc2c(c(Cl)c1OCCCl)CCCC2Nc1ccc(N2CCOCC2)nc1` (stereo not drawn) [HANT-170] gave an IC50 of 500 to 1000 nM.
